Test results published in patent publication US20250236627A1, “CERTAIN OCTAHYDROFURO[3,4- B]PYRAZINES AS GLP-1 RECEPTOR MODULATORS” (ASTRAZENECA AB, priority 2021, published 2025).

Key:
[1] = target: T1, endogenous human glucagon-like peptide 1 receptor (GLP-1R) (Homo sapiens, UniProt P43220); experiment: EndoC cAMP Accumulation Assay; type: cell-based; settings: EndoC-βH1 human pancreatic β cell line; HTRF cAMP assay
T1 construct: endogenous human glucagon-like peptide 1 receptor (GLP-1R) in a pancreatic insulinoma cell line; host or cells: EndoC-βH1 human pancreatic β cell line
T1 sequence (P43220 24-463): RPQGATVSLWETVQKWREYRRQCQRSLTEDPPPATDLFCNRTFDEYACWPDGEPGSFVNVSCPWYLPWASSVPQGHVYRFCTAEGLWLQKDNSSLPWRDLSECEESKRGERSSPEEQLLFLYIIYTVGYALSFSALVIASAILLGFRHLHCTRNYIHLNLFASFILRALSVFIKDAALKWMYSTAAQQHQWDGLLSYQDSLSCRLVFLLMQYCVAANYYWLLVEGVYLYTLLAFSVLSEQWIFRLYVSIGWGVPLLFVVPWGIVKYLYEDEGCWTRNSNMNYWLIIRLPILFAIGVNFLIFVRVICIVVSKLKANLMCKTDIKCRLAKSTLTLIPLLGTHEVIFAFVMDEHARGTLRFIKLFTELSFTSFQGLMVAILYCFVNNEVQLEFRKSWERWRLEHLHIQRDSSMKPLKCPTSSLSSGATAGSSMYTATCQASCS
Description: EndoC cAMP Accumulation Assay
A HTRF (Homogeneous Time-Resolved Fluorescence) cAMP assay (cAMP Gs dynamic kit; CisoBio Cat #62AM4PEJ) was used to identify agonists of the endogenous human glucagon-like peptide 1 receptor (GLP-1R) in a pancreatic insulinoma cell line (EndoC-βH1). […] EndoC-βH1 cells have detectable GLP-1R mRNA as detected by qPCR^1. […] The EndoC-βH1 cell line is a valid model of human beta cells and applicable for screenings to identify novel drug target candidates (Mol. Metab., 2018, 8, 144-157). CisBio HTRF cAMP kits are based on a competitive immunoassay using cryptate-labelled anti-cAMP antibody and d2-labeled cAMP. The detection kit is intended for the direct quantitative determination of cAMP. The specific signal (i.e. energy transfer) is inversely proportional to the concentration of cAMP in the standard or sample. Test compounds (10 mM in DMSO) were diluted into assay buffer (HBSS (Sigma #H8264) supplemented with 25 mM HEPES (Gibco #15630, pH 7.4), 0.1% BSA (Sigma #A3059) and 0.5 mM IBMX (Sigma #I7018) included fresh on the day of the assay) into 96 well U-bottom plates (Greiner #650201). Diluted compounds were transferred to ECHO source PP plates (Labcyte #P-05525) and dose response curves were dispensed acoustically using ECHO 550 into black shallow-well u-bottom 384-well HTRF Assay Plates (Corning 4514).
Cryovials of EndoC-H1 (supplied at 1×10e^7 cells/vial) were used directly for screening. The cryovials and were removed from LN2 and thawed rapidly in a 37° C. water bath. The cells were resuspended in assay buffer and centrifuged at 300 g for 5 min. Cells were resuspended in assay buffer at the appropriate concentration, typically at 12e5 cells per mL (3000 cells per well, dependent on cell batch) and 2.5 μL diluted cells were added to all wells of destination plate by Multidrop combi reagent dispenser (Thermofisher). The plates were incubated at room temperature for 30 min. The assay was stopped by adding 2.5 μL anti-cAMP cryptate solution to all wells and 2.5 μL cAMP-d2 solution (both diluted 1:20 in lysis buffer) to columns 1-22 by Combi drop. A volume of 2.5 μL cAMP-d2 solution was added to wells E23 to P24 and 2.5 μL lysis buffer added to wells A23 to D24 by multichannel pipette. The plates were incubated at room temperature for 1 hr and read on an Envision plate reader using excitation wavelength of 320 nm and emission of 590 nm and 660 nm.
Raw data from Envision is converted to % DeltaF according to the manufacturer's instructions. Dose response curves are analysed via 4-Parameter Logistical Analysis and assay plate Z′ values obtained. Samples are graphed as percentage (%) activation plots compared to GIP (1-42, Bachem H-5645) with assay window defined by negative control as basal cell cAMP levels and positive control are defined by maximum GIP (82.5 nM) signal. GLP1 (7-36 amide, Bachem H-6795) dose response curve was included on all plates.

human GLP-1R receptor = target: T2, human GLP-1R receptor (Homo sapiens, UniProt P43220, L260F); experiment: CHOK1 GLP-1R cAMP Assay; type: cell-based; settings: CHO-K1 cell line stably expressing human GLP-1R; HTRF cAMP detection
T2 construct: expressed in transfected cells; host or cells: CHO-K1 (ATCC CCL-61)
T2 sequence (P43220 24-463 L260F): as the sequence (P43220 24-463) above, with L237F counted along it
Method: A cell line stably expressing the human GLP-1R receptor (NM_002062.5, including the naturally-occurring variant Leu260Phe) in a CHO-K1 (ATCC® CCL-61™) was used for assay.
GLP-1 Receptor mediated agonist activity was determined in a cell based assay measuring cAMP levels in cells using Homogeneous Time-Resolved Fluorescence (HTRF) cAMP detection kit (CisBio catalog #62AM4PEC, cAMP Gs Dynamic range kit). The cAMP detection method is based on a competitive immunoassay, in which cAMP produced by the cells and cAMP labeled with the dye d2 compete for binding to a Europium-Cryptate-labeled anti-cAMP antibody. The specific HTRF signal is inversely proportional to the concentration of cAMP.
Compounds were added to individual well in 384 well-assay plates (Greiner #784076) using an Echo (LabCyte) dispenser from 10 mM stocks. Varying concentration of compounds were added to wells, and dimethyl sulfoxide was used to normalize each well to a volume of 100 nanoliter. A dose response curve of GLP1(7-36)NH2 (Bachem H-6795) was included in each run. 5 μL of cAMP concentration response standards are applied in specified wells in the assay plates.
Cryo-preserved cells are thawed and resuspended in assay buffer pre-heated to 37° C. (20 mM 2-[4-(2-hydroxyethyl)piperazin-1-yl]ethanesulfonic acid (HEPES) pH 7.4, lx Hank's Balanced Salt Solution (HBSS, Life Technologies #14065) supplemented with 0.1% (w/v) bovine serum albumin (Sigma, A-7030)). Cells were centrifuged at 250*g for 5 min at room temperature, and resuspend in room tempered assay buffer to a final density of 0.16*10^6 cell/mL, to deliver 800 cells/well. 5 μL of assay buffer with 1 mM 3-isobutyl-1-methylxanthin (IBMX; Sigma cat I-7018) was dispensed per well in assay plates using a multidrop combi (Thermo Scientific) subsequently 5 μL of cell suspension was distributed to relevant wells in the assay using a multidrop dispenser. Assay plates were incubated 20 min at room temperature.
Detection reagents, Europium-Cryptate-labeled anti-cAMP antibody and cAMP labeled with the dye d2, are diluted in lysis buffer, provided by the manufacturer. 5 μL of each detection reagent is supplemented to each assay well using a multidrop dispenser. Assay plates are incubated in the dark for at least one hour. The HTRF signal is measured using the HTRF module (excitation: 337 nm, emission A: 665 nm and emission B: 620 nm) in Pherastar FSX (BMG Labtech).
Raw data were converted to pM cAMP using the cAMP standard curve included in each run. Converted data were further analyzed in Genedata Screener (Genedata) and EC50 determinations were made from agonist dose-response curves analyzed with a curve fitting program using a 4-parameter logistic dose response equation (Equation y=A+((B−A)/1+((C/x)^D))) where A is no stimulation, B is full stimulation, C is the EC50 and D is the Hill slope). The percent effect was determined relative to a saturating concentration of a full GLP-1R agonist (GLP1(7-36)NH2 has 100% effect in this assay setup).

COc1cc(C(=O)O)cc2c1nc(CN1CCN(c3cccc4c3O[C@@](C)(c3ccc(Cl)cc3F)O4)[C@@H]3COC[C@@H]31)n2C[C@@H]1CCO1 (single isomer, unassigned) [Example 3a, 2-(((4aR*,7aS*)-4-((R*)-2-(4-Chloro-2-fluorophenyl)-2-methylbenzo[d][1,3]dioxol-4-yl)hexahydrofuro[3,4-b]pyrazin-1(2H)-yl)methyl)-4-methoxy-1-(((S)-oxetan-2-yl)methyl)-1H-benzo[d]imidazole-6-carboxylic acid]
EC50 [1]: 1.7 nM | EC50 (human GLP-1R receptor): 1.2 nM

C[C@]1(c2ccc(Cl)cn2)Oc2cccc(N3CCN(Cc4nc5c(Cl)cc(C(=O)O)cc5n4C[C@@H]4CCCO4)[C@H]4COC[C@H]43)c2O1 (single isomer, unassigned) [Example 4a, 4-Chloro-2-(((4aR*,7aS*)-4-((R*)-2-(5-chloropyridin-2-yl)-2-methylbenzo[d][1,3]dioxol-4-yl)hexahydrofuro[3,4-b]pyrazin-1(2H)-yl)methyl)-1-(((S)-tetrahydrofuran-2-yl)methyl)-1H-benzo[d]imidazole-6-carboxylic acid]
EC50 [1]: 4.6 nM | EC50 (human GLP-1R receptor): 5.1 nM

C[C@]1(c2ccc(Cl)cn2)Oc2cccc(N3CCN(Cc4nc5c(F)cc(C(=O)O)cc5n4C[C@@H]4CCO4)[C@H]4COC[C@H]43)c2O1 (single isomer, unassigned) [Example 9c, 2-((4aR*,7aS*)-4-((R*)-2-(5-Chloropyridin-2-yl)-2-methylbenzo[d][1,3]dioxol-4-yl)hexahydrofuro[3,4-b]pyrazin-1(2H)-yl)methyl)-4-fluoro-1-(((S)-oxetan-2-yl)methyl)-1H-benzo[d]imidazole-6-carboxylic acid]
EC50 [1]: 1100 nM | EC50 (human GLP-1R receptor): 570 nM

C[C@]1(c2ccc(Cl)cn2)Oc2cccc(N3CCN(Cc4nc5c(F)cc(C(=O)O)cc5n4CCn4cccn4)[C@H]4COC[C@H]43)c2O1 (single isomer, unassigned) [Example 11]
EC50 [1]: 35 nM | EC50 (human GLP-1R receptor): 96 nM

C[C@]1(c2ccc(Cl)cc2F)Oc2cccc(N3CCN(Cc4nc5c(F)cc(C(=O)O)cc5n4Cc4cocn4)[C@H]4COC[C@H]43)c2O1 (single isomer, unassigned) [Example 20a]
EC50 [1]: 410 nM | EC50 (human GLP-1R receptor): 150 nM

C[C@]1(c2ccc(Cl)cn2)Oc2cccc(N3CCN(Cc4nc5ccc(C(=O)O)cc5n4CCn4cccn4)[C@H]4COC[C@H]43)c2O1 (single isomer, unassigned) [Example 10]
EC50 [1]: 76 nM | EC50 (human GLP-1R receptor): 160 nM

C[C@]1(c2ccc(Cl)cn2)Oc2cccc(N3CCN(Cc4nc5c(Cl)cc(C(=O)O)cc5n4CCn4cccn4)[C@H]4COC[C@H]43)c2O1 (single isomer, unassigned) [Example 27]
EC50 [1]: 20 nM | EC50 (human GLP-1R receptor): 81 nM

C[C@]1(c2ccc(Cl)cc2F)Oc2cccc(N3CCN(Cc4nc5c(Cl)cc(C(=O)O)cc5n4C[C@@H]4CCO4)[C@H]4COC[C@H]43)c2O1 (single isomer, unassigned) [Example 15d, 4-Chloro-2-(((4aR*,7aS*)-4-((R*)-2-(4-chloro-2-fluorophenyl)-2-methylbenzo[d][1,3]dioxol-4-yl)hexahydrofuro[3,4-b]pyrazin-1(2H)-yl)methyl)-1-(((S)-oxetan-2-yl)methyl)-1H-benzo[d]imidazole-6-carboxylic acid]
EC50 [1]: 160 nM | EC50 (human GLP-1R receptor): 190 nM

C[C@]1(c2ccc(Cl)cc2F)Oc2cccc(N3CCN(Cc4nc5ccc(C(=O)O)cc5n4CCn4cccn4)[C@H]4COC[C@H]43)c2O1 (single isomer, unassigned) [Example 7a]
EC50 [1]: 19 nM | EC50 (human GLP-1R receptor): 46 nM

COc1cc(C(=O)O)cc2c1nc(CN1CCN(c3cccc4c3O[C@@](C)(c3ccc(Cl)cc3F)O4)[C@@H]3COC[C@@H]31)n2C[C@@H]1CCO1 (single isomer, unassigned) [Example 3b, 2-(((4aR*,7aS*)-4-((R*)-2-(4-Chloro-2-fluorophenyl)-2-methylbenzo[d][1,3]dioxol-4-yl)hexahydrofuro[3,4-b]pyrazin-1(2H)-yl)methyl)-4-methoxy-1-(((S)-oxetan-2-yl)methyl)-1H-benzo[d]imidazole-6-carboxylic acid]
EC50 [1]: 270 nM | EC50 (human GLP-1R receptor): 61 nM

C[C@]1(c2ccc(Cl)cn2)Oc2cccc(N3CCN(Cc4nc5c(F)cc(C(=O)O)cc5n4CC4(C#N)CC4)[C@H]4COC[C@H]43)c2O1 (single isomer, unassigned) [Example 22c]
EC50 [1]: 580 nM | EC50 (human GLP-1R receptor): 140 nM

C[C@]1(c2ccc(Cl)cn2)Oc2cccc(N3CCN(Cc4nc5c(F)cc(C(=O)O)cc5n4CC4(C#N)CC4)[C@H]4COC[C@H]43)c2O1 (single isomer, unassigned) [Example 22b]
EC50 [1]: 240 nM | EC50 (human GLP-1R receptor): 170 nM

C[C@]1(c2ccc(Cl)cn2)Oc2cccc(N3CCN(Cc4nc5c(Cl)cc(C(=O)O)cc5n4CC4(CC#N)CC4)[C@H]4COC[C@H]43)c2O1 (single isomer, unassigned) [Example 24]
EC50 [1]: 4.3 nM | EC50 (human GLP-1R receptor): 3.1 nM

C[C@]1(c2ccc(Cl)cc2F)Oc2cccc(N3CCN(Cc4nc5c(F)cc(C(=O)O)cc5n4C[C@@H]4CCO4)[C@H]4COC[C@H]43)c2O1 (single isomer, unassigned) [Example 16a, 2-(((4aR*,7aS*)-4-((R*)-2-(4-Chloro-2-fluorophenyl)-2-methylbenzo[d][1,3]dioxol-4-yl)hexahydrofuro[3,4-b]pyrazin-1(2H)-yl)methyl)-4-fluoro-1-(((S)-oxetan-2-yl)methyl)-1H-benzo[d]imidazole-6-carboxylic acid]
EC50 [1]: 2.3 nM | EC50 (human GLP-1R receptor): 1.2 nM

C[C@]1(c2ccc(Cl)cc2F)Oc2cccc(N3CCN(Cc4nc5ccc(C(=O)O)cc5n4CCn4cccn4)[C@H]4COC[C@H]43)c2O1 (single isomer, unassigned) [Example 7b]
EC50 (human GLP-1R receptor): 380 nM
